Tests used:
endogenous PDF protein = assay type: cell-based, Mycobacterium smegmatis
[1] = tested on: Mycobacterium smegmatis strain mc^2155; assay: Growth profile of M. smegmatis culture with antisense PS-ODNs (OD600 and colony forming units); settings: 10 μM PS-ODN, 24 h, 7H9 Middlebrook broth
E. coli = assay: Growth of E. coli culture with antisense PS-ODN (colony forming units); assay type: cell-based, Escherichia coli; settings: 10 μM PS-ODN, Lauria-Bertani medium; colony forming units vs untreated
Protocol: Further, to ensure that PS-ODN1 permeabilized within the M. smegmatis cells, PS-ODN1 were conjugated with 3′Flourescein label and used for the treatment of mycobacterial culture (˜1×10^5 cells of M. smegmatis were incubated with 10 μM PS-ODNs in 3 ml 7H9 Middlebrook broth supplemented with 10% ADC and grown at 37° C./200 rpm for 24 hrs). […] Since PS-ODN1 was mycobacteria specific, in E. coli where this insertion sequence is absent, when culture was treated with 10 μM PS-ODN1 had no effect on its growth. (FIG. 7, right panel).

PS-ODN1: 5′ phosphothiorate modified antisense oligodeoxyribonucleotide spanning bases 219-249 of M. tuberculosis def (insertion region); probably SEQ ID NO: 14 (antisense CGGATTGATGACCACACCGCGTCGGCGGGCGGTCAT; DNA, backbone and methylation of C not given here; phosphorothioate modified at 5'; listed as Mycobacterium tuberculosis)
level of expression of endogenous PDF protein compared to untreated control (endogenous PDF protein): significant reduction | decrease in growth of M. smegmatis compared to the untreated culture [1]: five-fold decrease | effect on growth profile of E. coli (E. coli): no effect
